The record followed here is PMC8124549, “Antidepressants Differentially Regulate Intracellular Signaling from α1-Adrenergic Receptor Subtypes In Vitro” (International Journal of Molecular Sciences, 2021).

The target of one assay is T1, α1B-AR (Homo sapiens, UniProt P35368).
T1 construct: gene ADRA1B; human receptor from pcDNA3.1+ plasmid, stably expressed in rat PC12 cells
T1 sequence (P35368 1-520): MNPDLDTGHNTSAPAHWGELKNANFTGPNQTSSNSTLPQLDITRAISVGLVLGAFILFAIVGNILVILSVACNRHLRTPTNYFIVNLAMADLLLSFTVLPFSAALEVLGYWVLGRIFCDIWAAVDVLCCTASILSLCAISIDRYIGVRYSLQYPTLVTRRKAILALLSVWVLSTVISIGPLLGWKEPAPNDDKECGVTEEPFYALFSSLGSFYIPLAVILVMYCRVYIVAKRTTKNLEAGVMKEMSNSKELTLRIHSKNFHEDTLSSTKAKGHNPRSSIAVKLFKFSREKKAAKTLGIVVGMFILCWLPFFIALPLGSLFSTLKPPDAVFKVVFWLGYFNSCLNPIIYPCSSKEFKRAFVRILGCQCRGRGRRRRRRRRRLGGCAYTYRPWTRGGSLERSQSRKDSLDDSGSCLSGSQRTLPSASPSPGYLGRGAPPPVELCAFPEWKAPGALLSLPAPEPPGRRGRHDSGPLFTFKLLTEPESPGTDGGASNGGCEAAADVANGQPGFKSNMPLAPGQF
In words: IP-One HTRF inositol phosphate accumulation, PC12 cells. Type of assay: cell-based.

The next assay addresses T2, α1A-AR (Homo sapiens, UniProt P35348).
T2 construct: gene ADRA1A; human receptor from pcDNA3.1+ plasmid, stably expressed in rat PC12 cells
T2 sequence (P35348 1-466): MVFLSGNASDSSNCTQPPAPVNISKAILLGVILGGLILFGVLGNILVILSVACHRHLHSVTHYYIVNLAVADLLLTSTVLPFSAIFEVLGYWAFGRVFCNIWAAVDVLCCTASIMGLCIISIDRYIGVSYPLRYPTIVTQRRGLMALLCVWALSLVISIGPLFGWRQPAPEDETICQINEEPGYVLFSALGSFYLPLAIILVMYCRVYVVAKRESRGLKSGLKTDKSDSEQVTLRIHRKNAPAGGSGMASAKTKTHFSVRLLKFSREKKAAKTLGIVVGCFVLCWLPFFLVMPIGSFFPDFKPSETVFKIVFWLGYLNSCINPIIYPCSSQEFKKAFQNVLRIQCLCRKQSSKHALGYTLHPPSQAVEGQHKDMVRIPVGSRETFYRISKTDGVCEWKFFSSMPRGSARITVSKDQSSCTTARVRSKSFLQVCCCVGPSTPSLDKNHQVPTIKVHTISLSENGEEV
The assay is described as above. The assay is classed as cell-based.

Read-outs that look alike come from different tables or passages of the source.

On α1B-AR, `CN(C)CCCC1(c2ccc(F)cc2)OCc2cc(C#N)ccc21` (stereo not drawn) [citalopram] came in with an IC50 above 100 µM.
`CN(C)CCCN1c2ccccc2CCc2ccccc21` [imipramine]: the results for the IC50 at α1A-AR (read-out: α1A (converted)) and against α1B-AR were 0.468 µM and 8.13 µM, respectively.
`CNCCCN1c2ccccc2CCc2ccccc21` [desipramine] had an IC50 against α1B-AR of 7.94 µM.
With `COc1cccc(OC)c1OCCNCC1COc2ccccc2O1` (stereo not drawn) [WB4101], on α1A-AR (antagonism of noradrenaline at EC90, 37 °C, pH 7), the IC50 was 1 × 10^−8.6 M.
`CNCCC(Oc1ccc(C(F)(F)F)cc1)c1ccccc1` (stereo not drawn) [fluoxetine] registered an IC50 against α1B-AR above 100 µM.
